Laboratory results from PubChem BioAssay (NCI).
Where “and” joins values, the source holds several entries; their conditions need not be identical. Equal entries are not always repeated.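 96-well plates; 48 h exposure; 5 concentrations. Endpoints by linear interpolation between flanking doses. Not reached: highest tested concentration assigned. GI50 is the concentration that inhibits growth by half. The concentration for full growth arrest is given as TGI.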

What was measured:
Assay in all cases: NCI-60 cell line screen, 48 h
[1] = tested on: ACHN renal
[2] = tested on: HCT-15 colon
[3] = tested on: HOP-92 NSCLC
[4] = tested on: K-562 leukemia
[5] = tested on: OVCAR-8 ovarian
[6] = tested on: SF-539 CNS
[7] = tested on: SNB-75 CNS
[8] = tested on: UACC-257 melanoma
[9] = tested on: SF-268 CNS
[10] = tested on: MDA-MB-435

| SMILES | TGI [1] | TGI [2] | TGI [3] | TGI [4] | TGI [5] | TGI [6] | TGI [7] | TGI [8] | TGI [9] | GI50 [1] | GI50 [4] | TGI [10] | GI50 [6] | GI50 [7] | GI50 [2] | GI50 [3] | GI50 [5] | GI50 [9] | GI50 [8] | GI50 [10] |
| --- | --- | --- | --- | --- | --- | --- | --- | --- | --- | --- | --- | --- | --- | --- | --- | --- | --- | --- | --- | --- |
| COc1ccc2ccc3c(c2c1)CN1CCc2cc(OC)c(OC)cc2C1C3 (stereo not drawn) | > 100 µM | > 100 µM | > 100 µM | > 100 µM | > 100 µM | > 100 µM | 96.8 µM | > 100 µM | – | – | – | – | – | – | – | – | – | – | – | – |
| CCCCCCCCCCCCCC(=O)OC1CC(=O)OC1CO (stereo not drawn) | > 100 µM | 38.4 µM | 43.1 µM | 58.8 µM | > 100 µM | > 100 µM | > 100 µM | > 100 µM | > 100 µM | – | – | – | – | – | – | – | – | – | – | – |
| Cc1cc2c(cc1C)[n+](=O)c(C(=O)CC(=O)C(=O)Nc1c(C(C)C)cccc1C(C)C)c(C)n2[O-] | > 100 µM | > 100 µM | > 100 µM | > 100 µM | > 100 µM | > 100 µM | > 100 µM | > 100 µM | > 100 µM | – | – | – | – | – | – | – | – | – | – | – |
| Cc1ccc(S(=O)(=O)C(CC(=O)N2CCCC2)C(=O)c2ccccc2)cc1 (stereo not drawn) | > 100 µM | – | > 100 µM | > 100 µM | > 100 µM | > 100 µM | > 100 µM | > 100 µM | > 100 µM | – | – | – | – | – | – | – | – | – | – | – |
| Clc1ccc(C2N3CCCCC3[C@@H]3c4[nH]c5ccccc5c4CCN23)cc1 (stereo partly drawn) | > 100 µM | > 100 µM | > 100 µM | > 100 µM | > 100 µM | > 100 µM | > 100 µM | > 100 µM | > 100 µM | – | – | – | – | – | – | – | – | – | – | – |
| COc1cccc(-c2cc(=O)c3cc(N(C)C)ccc3[nH]2)c1 | > 100 µM and 51.9 µM | – | – | 0.0887 µM | 94.6 nM [middle of 4 runs] | 0.0351 µM and 0.022 µM and 0.0128 µM | > 100 µM | > 100 µM | – | 89.2 nM and 11 nM | 9.37 nM and 4.04 nM | 10.3 nM and 3.61 nM | 10.6 nM and 3.32 nM | 27.1 nM and 8.69 nM | – | – | – | – | – | – |
| O=C(O)Cn1ccc(=O)c2ccc([N+](=O)[O-])cc21 | > 100 µM | > 100 µM | – | > 100 µM | > 100 µM | > 100 µM | > 100 µM | > 100 µM | > 100 µM | – | – | > 100000 nM | – | – | – | – | – | – | – | – |
| CC(=O)Nc1ccccc1Sc1ccccc1 | > 100 µM | > 100 µM | > 100 µM | > 100 µM | > 100 µM | > 100 µM | > 100 µM | > 100 µM | > 100 µM | – | – | – | – | – | – | – | – | – | – | – |
| N#CC1(Cc2ccc(N)cc2)c2ccccc2C=CN1C(=O)c1ccccc1 (stereo not drawn) | > 100 µM | – | > 100 µM | > 100 µM | > 100 µM | > 100 µM | > 100 µM | > 100 µM | > 100 µM | – | – | – | – | – | – | – | – | – | – | – |
| CC(C)CC(=O)[O-].CC(C)CC(=O)[O-].N.N.N.N.[Co+3].[O-][Cl+3]([O-])([O-])[O-] | > 100 µM | > 100 µM | > 100 µM | > 100 µM | > 100 µM | > 100 µM | > 100 µM | > 100 µM | > 100 µM | > 100000 nM | > 100000 nM | – | > 100000 nM | > 100000 nM | > 100 µM | > 100 µM | > 100 µM | > 100 µM | > 100000 nM | – |
| COC(=O)C1=C(C(=O)OC)C2C=CC1C1C(Cl)=C(Cl)C21 (stereo not drawn) | > 100 µM | > 100 µM | > 100 µM | > 100 µM | > 100 µM | > 100 µM | > 100 µM | > 100 µM | > 100 µM | – | – | – | – | – | – | – | – | – | – | – |
| N#C/C(=C/c1ccsc1)C(=O)c1ccccc1 | > 100 µM | > 100 µM | > 100 µM | > 100 µM | > 100 µM | > 100 µM | > 100 µM | > 100 µM | > 100 µM | – | – | – | – | – | – | – | – | – | – | – |
| CCCCNC1=C(C(=O)OCC)C(=O)CO1 | > 100 µM | > 100 µM | – | > 100 µM | > 100 µM | > 100 µM | > 100 µM | > 100 µM | > 100 µM | – | – | – | – | – | – | – | – | – | – | – |
| O=C1C=CC(=Nc2ccc3c(c2)C(Br)c2ccccc2-3)O1 (stereo not drawn) | > 100 µM | > 100 µM | – | > 100 µM | > 100 µM | > 100 µM | > 100 µM | > 100 µM | > 100 µM | – | – | – | – | – | – | – | – | – | – | – |
| CC1=C(C(=O)Nc2ccc([N+](=O)[O-])cc2)C(c2ccc(N(C)C)cc2)C(C(=O)Nc2ccc([N+](=O)[O-])cc2)=C(C)N1 | 43.6 µM | – | 47.7 µM | 37.6 µM | 97.9 µM | 50.5 µM | 59.6 µM | 35.6 µM | 96.1 µM | – | – | – | – | – | – | – | – | – | – | – |
| CCCCN(CCCC)C(=O)C(=O)C(C#N)c1ccc(C)cc1 (stereo not drawn) | > 100 µM | > 100 µM | > 100 µM | > 100 µM | > 100 µM | > 100 µM | > 100 µM | > 100 µM | > 100 µM | – | – | – | – | – | – | – | – | – | – | – |
| COc1cc(C2c3cc4c(cc3C(NCC(O)CO)C3COC(=O)[C@H]23)OCO4)cc(OC)c1OC (stereo partly drawn) | > 100 µM | > 100 µM | – | > 100 µM | > 100 µM | 0.344 µM | > 100 µM | > 100 µM | > 100 µM | – | – | – | – | – | – | – | – | – | – | – |
| CN(C(=O)C12C3C4C1C1C2C3C41C(=O)C(C)(C)C)C(C)(C)C (stereo not drawn) | > 100 µM | – | – | > 100 µM | > 100 µM | > 100 µM | > 100 µM | > 100 µM | > 100 µM | – | – | – | – | – | – | – | – | – | – | – |
| N#CSCC1CC(O)(c2ccccc2)C(c2ccccc2)C(c2ccc(Cl)cc2)O1 (stereo not drawn) | 3.02 µM | 3.38 µM | – | 5.42 µM | 3.83 µM | 3.17 µM | 4.28 µM | 3.39 µM | 4.74 µM | 1600 nM | 1370 nM | 2880 nM | 1760 nM | 1550 nM | 1.43 µM | – | 1.78 µM | 1.67 µM | 1610 nM | 1400 nM |
| COC(=O)C(=O)C(C(=O)C=C(C)C)C(=O)C(=O)Nc1cc(C(F)(F)F)ccc1Cl (stereo not drawn) | > 100 µM | > 100 µM | > 100 µM | > 100 µM | > 100 µM | > 100 µM | > 100 µM | > 100 µM | > 100 µM | – | – | – | – | – | – | – | – | – | – | – |
| CCOc1ccc2c(c1)[n+]([O-])c(S(=O)(=O)c1ccc(C)cc1)c(N)[n+]2[O-] | > 100 µM | – | > 100 µM | > 100 µM | > 100 µM | > 100 µM | > 100 µM | > 100 µM | > 100 µM | – | – | – | – | – | – | – | – | – | – | – |
| CCCCCCCCCC[C@@H](O)[C@@H]1CC[C@H]([C@H]2CC[C@@H]([C@@H](O)CCCCCCCCCC[C@H]3CC(CC(C)=O)C(=O)O3)O2)O1 (stereo partly drawn) | – | 34 µM | 33.4 µM | 33.4 µM | 37.8 µM | 22.7 µM | 26.9 µM | 26.7 µM | 31.4 µM | – | – | – | – | – | – | – | – | – | – | – |
| COC(=O)C[C@H]1CCC2(OCCO2)[C@]1(C)C(=O)OC | > 100 µM | > 100 µM | > 100 µM | > 100 µM | > 100 µM | > 100 µM | > 100 µM | > 100 µM | > 100 µM | – | – | – | – | – | – | – | – | – | – | – |
| C=C(CN1CCc2ccccc2C1)c1ccc(C(=O)Nc2cnccn2)cc1 | > 100 µM | > 100 µM | – | 14.7 µM | > 100 µM | 83.3 µM | 61.2 µM | > 100 µM | > 100 µM | 30800 nM | 3170 nM | – | 7590 nM | 16700 nM | 28.8 µM | – | 30.2 µM | 60.4 µM | 83600 nM | – |
| O=C(CI)NC1Oc2ccccc2-c2oc(=O)c(-c3ccccc3)cc21 (stereo not drawn) | – | – | – | 11.9 µM | 4.47 µM | 3.13 µM | 2.94 µM | 4.84 µM | 3.36 µM | – | 1320 nM | 3160 nM | 1730 nM | 1540 nM | – | – | 1.79 µM | 1.68 µM | 2070 nM | 1680 nM |
| COc1cc(OC)cc(-c2ccc(-c3ccc(C(=N)N)o3)o2)c1 | 4.22 µM | 10.4 µM | – | 4.47 µM | 14 µM | 3.44 µM | 13.8 µM | 5.41 µM | 13.2 µM | 2050 nM | 1980 nM | 3120 nM | 1830 nM | 2200 nM | 3.18 µM | – | 3.75 µM | 3.4 µM | 2410 nM | 1520 nM |
| Cc1ccc(C)c(NC(=O)CC/C(=N\NC(=O)C(=O)NN)C(C)C(=O)c2ccc(O)cc2)c1 (stereo not drawn) | > 100 µM | > 100 µM | > 100 µM | > 100 µM | – | > 100 µM | > 100 µM | > 100 µM | > 100 µM | – | – | – | – | – | – | – | – | – | – | – |
| O=C(N/N=C/c1ccccc1O)c1cccc([N+](=O)[O-])c1 | > 100 µM | > 100 µM | – | > 100 µM | > 100 µM | > 82.1 µM | – | > 60.6 µM | > 100 µM | – | – | – | – | – | – | – | – | – | – | – |
| CC12CC[C@@H](C(C)(C)O)C1[C@@H](O)CC1(C)C2CCC2[C@@]3(C)CC[C@H](O)C(C)(C)C3C(O)C[C@]21C (stereo partly drawn) | 29.1 µM | 29.4 µM | 37.5 µM | 24.5 µM | 41.2 µM | 35.3 µM | – | – | 39.7 µM | – | – | – | – | – | – | – | – | – | – | – |
| COc1ccc2cc1Oc1ccc(cc1)CC1c3cc(c(OC)cc3CCN1C)Oc1c3c(cc4c1C(C2)N(C)CC4)OCO3 (stereo not drawn) | 13.9 µM | 14.7 µM | – | 4.17 µM | 21.1 µM | 6.03 µM | 15.3 µM | – | 22.5 µM | – | – | – | – | – | – | – | – | – | – | – |
